Among the data in US8501746B2, “Organic compounds” (Xenon Pharmaceuticals Inc., priority 2006, dated 2013) are melting point values, retold here.

Each structure is given as a SMILES string.

`Cc1nc(-n2cccc(O)c2=O)sc1C(=O)NCc1ccccc1` [Example 7, N-Benzyl-2-(3-hydroxy-2-oxopyridin-1(2H)-yl)-4-methylthiazole-5-carboxamide]: the melting point (as a rule, the temperature of the solid-liquid transition) was 225 to 228 °C. For `CCOC(=O)c1sc(-n2ccc(OCc3ccc(F)cc3)cc2=O)nc1C` [Example 17.1, Ethyl 2-(4-(4-Fluorobenzyloxy)-2-oxopyridin-1(2H)-yl)-4-methylthiazole-5-carboxylate], the melting point lay within 214 to 217 °C.

`Cc1nc(-n2ccc3c(OCc4ccccc4)cccc3c2=O)sc1C(=O)NCc1ccccc1` [Example 3.8, N-Benzyl-2-(5-(benzyloxy)-1-oxoisoquinolin-2(1H)-yl)-4-methylthiazole-5-carboxamide] showed a melting point of 225 to 226 °C. `CCOC(=O)c1sc(-n2ccc(OCCC3CC3)cc2=O)nc1C` [Example 15.2, Ethyl 2-(4-(2-Cyclopropylethoxy)-2-oxopyridin-1(2H)-yl)-4-methylthiazole-5-carboxylate] registered a melting point of 188 to 190 °C.

For the compound `Cc1nc(-n2ccc(OCc3ccccc3)cc2=O)sc1C(=O)NCc1cccnc1` [Example 3.25, 2-(4-(Benzyloxy)-2-oxopyridin-1(2H)-yl)-4-methyl-N-(pyridin-3-ylmethyl)thiazole-5-carboxamide], the melting point was in the range of 208 to 209 °C. `Cc1cc(-n2ccc(OCc3ccc(OC(F)F)cc3)cc2=O)sc1C(=O)NCc1ccccc1` [Example 9.3, N-Benzyl-5-(4-(4-(difluoromethoxy)benzyloxy)-2-oxopyridin-1(2H)-yl)-3-methylthiophene-2-carboxamide] returned a melting point of 178 to 180 °C. Regarding `Cc1nc(-n2c(=O)ccc3cc(OCc4ccccc4)ccc32)sc1C(=O)NCc1ccccc1` [Example 3.9, N-Benzyl-2-(6-(benzyloxy)-2-oxoquinolin-1(2H)-yl)-4-methylthiazole-5-carboxamide], the melting point was 213 to 216 °C. As for `Cc1nc(-n2ccc(O)cc2=O)sc1C(=O)NCCC1CC1` [Example 1.17, N-(2-Cyclopropylethyl)-2-(4-hydroxy-2-oxopyridin-1(2H)-yl)-4-methylthiazole-5-carboxamide], the melting point was 234 to 236 °C. The same measure for `Cc1cc(-n2ccc(OCCc3ccccc3)cc2=O)sc1C(=O)NCc1ccccc1` [Example 9.4, N-Benzyl-3-methyl-5-(2-oxo-4-phenethoxypyridin-1(2H)-yl)thiophene-2-carboxamide]: 159 to 160 °C; for `Cc1nc(-n2ccccc2=O)sc1C(=O)NCc1ccccc1` [Example 3.10, N-Benzyl-4-methyl-2-(2-oxopyridin-1(2H)-yl)thiazole-5-carboxamide]: 180 to 182 °C.

As to `Cc1cc(-n2ccc(OCC3CC3)cc2=O)sc1C(=O)NCc1ccccc1` [Example 9.5, N-Benzyl-5-(4-(cyclopropylmethoxy)-2-oxopyridin-1(2H)-yl)-3-methylthiophene-2-carboxamide], the melting point is 175 to 177 °C.

The compound `Cc1nc(-n2ccc(OCc3ccc(C(F)(F)F)o3)cc2=O)sc1C(=O)O` [Example 13.6] registered a melting point of 261 to 263 °C. As for `Cc1nc(-n2ccc(C3CC3)cc2=O)sc1C(=O)NCc1ccccc1` [Example 19.1, N-Benzyl-2-(4-cyclopropyl-2-oxopyridin-1(2H)-yl)-4-methylthiazole-5-carboxamide], the melting point lay in the range of 149 to 151 °C. The same measure for `Cc1nc(-n2ccc(O)cc2=O)sc1C(=O)NCc1cccc(F)c1` [Example 1.15, N-(3-Fluorobenzyl)-2-(4-hydroxy-2-oxopyridin-1(2H)-yl)-4-methylthiazole-5-carboxamide]: 250 to 252 °C; for `Cc1nc(-n2ccc(-c3ccccc3)cc2=O)sc1C(=O)NCc1ccccc1` [Example 1, N-benzyl-4-methyl-2-(2-oxo-4-phenylpyridin-1(2H)-yl)thiazole-5-carboxamide]: 235 to 237 °C; for `Cc1nc(-n2ccc(O)cc2=O)sc1C(=O)NCc1ccncc1` [Example 1.20, 2-(4-Hydroxy-2-oxopyridin-1(2H)-yl)-4-methyl-N-(pyridin-4-ylmethyl)thiazole-5-carboxamide]: 275 to 278 °C.

The compound `Cc1cc(-n2ccc(OCc3ccc(F)cc3)cc2=O)sc1C(=O)NCc1ccccc1` [Example 9.2, N-Benzyl-5-(4-(4-fluorobenzyloxy)-2-oxopyridin-1(2H)-yl)-3-methylthiophene-2-carboxamide] gave a melting point of 195 to 197 °C. With `Cc1nc(-n2ccc(COc3ccccc3)cc2=O)sc1C(=O)NCc1ccccc1` [Example 3.18, N-Benzyl-4-methyl-2-(2-oxo-4-(phenoxymethyl)pyridin-1(2H)-yl)thiazole-5-carboxamide] the figure was 175 to 177 °C; with `Cc1cc(-n2ccc(OCCCO)cc2=O)sc1C(=O)NCc1cccc(F)c1` [Example 25, N-(3-Fluorobenzyl)-5-(4-(3-hydroxypropoxy)-2-oxopyridin-1(2H)-yl)-3-methylthiophene-2-carboxamide], 135 to 137 °C. In the case of `CCOC(=O)c1[nH]c(-n2ccc(OCc3ccccc3)cc2=O)nc1C` [Example 12.2, Ethyl 2-(4-(benzyloxy)-2-oxopyridin-1(2H)-yl)-4-methyl-1H-imidazole-5-carboxylate], the melting point is 135 to 136 °C. Compound `Cc1cc(-n2ccc(O)cc2=O)sc1C(=O)NCc1cccc(F)c1` [Example 7.8, N-(3-Fluorobenzyl)-5-(4-hydroxy-2-oxopyridin-1(2H)-yl)-3-methylthiophene-2-carboxamide] came in with a melting point of 140 to 142 °C.

For `COc1ccn(-c2nc(C)c(C(=O)NCc3cccnc3)s2)c(=O)c1` [Example 1.11, 2-(4-Methoxy-2-oxopyridin-1(2H)-yl)-4-methyl-N-(pyridin-3-ylmethyl)thiazole-5-carboxamide], the melting point was in the range of 200 to 202 °C. For the compound `Cc1cc(-n2ccc(O)cc2=O)sc1C(=O)NCc1ccccc1` [Example 7.4, N-Benzyl-5-(4-hydroxy-2-oxopyridin-1(2H)-yl)-3-methylthiophene-2-carboxamide], the melting point was 98 °C (dec.). Take `CCNC(=O)c1sc(-n2ccc(OCc3ccccc3)cc2=O)cc1C` [Example 3.23, 5-(4-(Benzyloxy)-2-oxopyridin-1(2H)-yl)-N-ethyl-3-methylthiophene-2-carboxamide]: the melting point is 158 to 160 °C. With `Cc1nc(-n2ccc(N3CCNC3=O)cc2=O)sc1C(=O)NCc1ccccc1` [Example 26, N-Benzyl-4-methyl-2-(2-oxo-4-(2-oxoimidazolidin-1-yl)pyridin-1(2H)-yl)thiazole-5-carboxamide], the melting point was greater than 300 °C.

Turning to `Cc1nc(-n2ccc(C(=O)Nc3ccccc3)cc2=O)sc1C(=O)NCc1ccccc1` [Example 3.13, N-Benzyl-4-methyl-2-(2-oxo-4-(phenylcarbamoyl)pyridin-1(2H)-yl)thiazole-5-carboxamide], the melting point lay within 243 to 245 °C. Turning to `Cc1nc(-n2ccc(O)cc2=O)sc1C(=O)NCC1CC1` [Example 1.16, N-(Cyclopropylmethyl)-2-(4-hydroxy-2-oxopyridin-1(2H)-yl)-4-methylthiazole-5-carboxamide], the melting point was in the range of 240 to 242 °C. Consider `Cc1nc(-n2ccc(OCCC3CC3)cc2=O)sc1C(=O)NCc1ccc(F)cc1` [Example 1.4, 2-(4-(2-Cyclopropylethoxy)-2-oxopyridin-1(2H)-yl)-N-(4-fluorobenzyl)-4-methylthiazole-5-carboxamide], for which the melting point was 172 to 174 °C. The same measure for `COc1ccn(-c2nc(C)c(C(=O)NCc3ccc[n+]([O-])c3)s2)c(=O)c1` [Example 27, 3-((2-(4-methoxy-2-oxopyridin-1(2H)-yl)-4-methylthiazole-5-carboxamido)methyl)pyridine 1-oxide]: 255 to 257 °C; for `Cc1nc(-n2ccc(OCc3ccccn3)cc2=O)sc1C(=O)NCc1ccccc1` [Example 6.1, N-Benzyl-4-methyl-2-(2-oxo-4-(pyridin-2-ylmethoxy)pyridin-1(2H)-yl)thiazole-5-carboxamide]: 202 to 205 °C. The compound `Cc1nc(-n2cccc(C(=O)Nc3ccccc3)c2=O)sc1C(=O)NCc1ccccc1` [Example 3.14, N-Benzyl-4-methyl-2-(2-oxo-3-(phenylcarbamoyl)pyridin-1(2H)-yl)thiazole-5-carboxamide] yielded a melting point of 225 to 227 °C.

Turning to `O=C(NCc1ccccc1)c1csc(-n2ccc(O)cc2=O)c1` [Example 7.3, N-Benzyl-5-(4-hydroxy-2-oxopyridin-1(2H)-yl)thiophene-3-carboxamide], the melting point was 150 °C (dec.). `COc1ccn(-c2nc(C)c(C(=O)NCc3ccc(F)c(F)c3)s2)c(=O)c1` [Example 9.11, N-(3,4-Difluorobenzyl)-2-(4-methoxy-2-oxopyridin-1(2H)-yl)-4-methylthiazole-5-carboxamide] gave a melting point of 183 to 185 °C.

`Cc1nc(-n2ccc(-c3ccc(Cl)cc3)cc2=O)sc1C(=O)NCc1ccccc1` [Example 10, N-Benzyl-2-(4-(4-chlorophenyl)-2-oxopyridin-1(2H)-yl)-4-methylthiazole-5-carboxamide] came in with a melting point of 265 to 267 °C. On to `Cc1nc(-n2cc(OCc3ccccc3)ccc2=O)sc1C(=O)NCc1ccccc1` [Example 3.2, N-Benzyl-2-(5-(benzyloxy)-2-oxopyridin-1(2H)-yl)-4-methylthiazole-5-carboxamide], for which the melting point lay within 166 to 167 °C.

As for `Cc1nc(-n2ccc(OCc3ccc(C(F)(F)F)o3)cc2=O)sc1C(=O)NCc1ccccc1` [Example 9.7], the melting point was 214 to 216 °C. As for `Cc1cc(-n2ccc(OCc3ccccc3)cc2=O)sc1C(=O)NCc1cccc(F)c1` [Example 3.22, 5-(4-(Benzyloxy)-2-oxopyridin-1(2H)-yl)-N-(3-fluorobenzyl)-3-methylthiophene-2-carboxamide], the melting point lay in the range of 140 to 141 °C. `CCOC(=O)c1sc(-n2ccc(OCC3CC3)cc2=O)nc1C` [Example 15, Ethyl 2-(4-(Cyclopropylmethoxy)-2-oxopyridin-1(2H)-yl)-4-methylthiazole-5-carboxylate]: the melting point is 180 to 183 °C.
